Reference: ChEMBL document CHEMBL3045426, “Synthesis, Antiviral and Antibacterial Activities of Isatin Mannich Bases” (Med Chem Res, 2005)
Values after ≈ are worked out from the molar mass of the structure shown.

Tests used:
[1] = Selectivity index, ratio of CC50 for human MT4 cells to EC50 for HIV1 3B infected in MT4 cells; format: toxicity, cell-based; conditions: read-out: Ratio CC50/EC50
Vibrio cholerae [2] = test: Antimicrobial activity against Vibrio cholerae 01 after 18 to 20 hr by agar dilution method; format: functional; conditions: 1
Priestia megaterium = test: Antimicrobial activity against Bacillus megaterium after 18 to 20 hr by agar dilution method; format: functional
Enterobacter = test: Antimicrobial activity against Enterobacter after 18 to 20 hr by agar dilution method; format: functional
Citrobacter freundii = test: Antimicrobial activity against Citrobacter freundii after 18 to 20 hr by agar dilution method; format: functional
Salmonella enteritidis = test: Antimicrobial activity against Salmonella enterica subsp. enterica serovar Enteritidis after 18 to 20 hr by agar dilution method; format: functional
Salmonella typhimurium = test: Antimicrobial activity against Salmonella enterica subsp. enterica serovar Typhimurium after 18 to 20 hr by agar dilution method; format: functional
Proteus mirabilis = test: Antimicrobial activity against Proteus mirabilis after 18 to 20 hr by agar dilution method; format: functional
Proteus vulgaris = test: Antimicrobial activity against Proteus vulgaris after 18 to 20 hr by agar dilution method; format: functional
Edwardsiella tarda = test: Antimicrobial activity against Edwardsiella tarda after 18 to 20 hr by agar dilution method; format: functional
Escherichia coli = test: Antimicrobial activity against Escherichia coli NCTC 10418 after 18 to 20 hr by agar dilution method; format: functional
Salmonella typhi = test: Antimicrobial activity against Salmonella enterica subsp. enterica serovar Typhi after 18 to 20 hr by agar dilution method; format: functional
Salmonella paratyphi = test: Antimicrobial activity against Salmonella enterica subsp. enterica serovar Paratyphi A after 18 to 20 hr by agar dilution method; format: functional
Vibrio parahaemolyticus = test: Antimicrobial activity against Vibrio parahaemolyticus after 18 to 20 hr by agar dilution method; format: functional
Vibrio cholerae [3] = test: Antimicrobial activity against Vibrio cholerae 0139 after 18 to 20 hr by agar dilution method; format: functional; conditions: 139
Vibrio fluvialis = test: Antimicrobial activity against Vibrio fluvialis after 18 to 20 hr by agar dilution method; format: functional
Vibrio mimicus = test: Antimicrobial activity against Vibrio mimicus after 18 to 20 hr by agar dilution method; format: functional
Pseudomonas aeruginosa = test: Antimicrobial activity against Pseudomonas aeruginosa after 18 to 20 hr by agar dilution method; format: functional
Staphylococcus aureus = test: Antimicrobial activity against Staphylococcus aureus after 18 to 20 hr by agar dilution method; format: functional
Morganella morganii = test: Antimicrobial activity against Morganella morganii after 18 to 20 hr by agar dilution method; format: functional
Shigella boydii = test: Antimicrobial activity against Shigella boydii after 18 to 20 hr by agar dilution method; format: functional
Plesiomonas = test: Antimicrobial activity against Plesiomonas after 18 to 20 hr by agar dilution method; format: functional
Shigella sonnei = test: Antimicrobial activity against Shigella sonnei after 18 to 20 hr by agar dilution method; format: functional
Klebsiella pneumoniae [4] = test: Antimicrobial activity against Klebsiella pneumoniae after 18 to 20 hr by agar dilution method; format: functional
Klebsiella pneumoniae [5] = test: Antimicrobial activity against Klebsiella pneumoniae subsp. ozaenae after 18 to 20 hr by agar dilution method; format: functional
[6] = test system: Mycobacterium tuberculosis; test: Antimycobacterial activity against Mycobacterium tuberculosis H37Rv ATCC 27294 at 6.25 ug/ml by MABA; format: functional
[7] = Cytotoxicity against Homo sapiens (human) HuH7 cells assessed as cell growth at 50 ug/ml after 3 days by Neutral red assay; format: cell-based, Huh-7; conditions: read-out: Activity
[8] = Cytotoxicity against Homo sapiens (human) CEM cells after 5 days by MTT assay; format: cell-based; conditions: CEM cells (CCRF-CEM)
[9] = test system: Human immunodeficiency virus 1; test: Antiviral activity against Human immunodeficiency virus 1 IIIB infected CEM cells assessed as protection against viral infection after 6 days by XTT assay; format: functional, CCRF-CEM; parameters: concentration or dose not given beside the values
[10] = test system: Human immunodeficiency virus 1; test: Antiviral activity against Human immunodeficiency virus 1 IIIB infected CEM cells assessed as inhibition of virus-induced cytopathicity after 6 days by XTT assay; format: functional, organism-based; conditions: CCRF-CEM, 144 h
[11] = Cytotoxicity against Homo sapiens (human) MT4 cells after 5 days by MTT assay; format: cell-based
[12] = test system: Human immunodeficiency virus 1; test: Antiviral activity against Human immunodeficiency virus 1 IIIB infected MT4 cells assessed as inhibition of virus-induced cytopathicity after 5 days by MTT assay; format: functional, organism-based; conditions: MT4, 120 h
Hepatitis C virus = test: Antiviral activity against Hepatitis C virus BM4-5 infected in Huh7 cells assessed as inhibition of viral RNA replication by phosphor screening method; format: functional, Hepacivirus hominis, Huh-7
[13] = test system: Human immunodeficiency virus 1; test: Antiviral activity against Human immunodeficiency virus 1 IIIB infected MT4 cells assessed as protection against viral infection after 5 days by MTT assay; format: functional; parameters: concentration or dose not given beside the values

SMILES	selectivity ratio [1]	MIC (Vibrio cholerae [2]) [µg/mL]	MIC (Priestia megaterium) [µg/mL]	MIC (Enterobacter) [µg/mL]	MIC (Citrobacter freundii) [µg/mL]	MIC (Salmonella enteritidis) [µg/mL]	MIC (Salmonella typhimurium) [µg/mL]	MIC (Proteus mirabilis) [µg/mL]	MIC (Proteus vulgaris) [µg/mL]	MIC (Edwardsiella tarda) [µg/mL]	MIC (Escherichia coli) [µg/mL]	MIC (Salmonella typhi) [µg/mL]	MIC (Salmonella paratyphi) [µg/mL]	MIC (Vibrio parahaemolyticus) [µg/mL]	MIC (Vibrio cholerae [3]) [µg/mL]	MIC (Vibrio fluvialis) [µg/mL]	MIC (Vibrio mimicus) [µg/mL]	MIC (Pseudomonas aeruginosa) [µg/mL]	MIC (Staphylococcus aureus) [µg/mL]	MIC (Morganella morganii) [µg/mL]	also measured
COc1cc(Cc2cnc(/N=C3\C(=O)N(CN4CCCCC4C)c4ccc(Cl)cc43)nc2N)cc(OC)c1OC (stereo not drawn)	3	4.88 (≈ 8.64 µM)	625 (≈ 1110 µM)	625 (≈ 1110 µM)	625 (≈ 1110 µM)	625 (≈ 1110 µM)	1250 (≈ 2210 µM)	625 (≈ 1110 µM)	625 (≈ 1110 µM)	1250 (≈ 2210 µM)	625 (≈ 1110 µM)	1250 (≈ 2210 µM)	625 (≈ 1110 µM)	1.22 (≈ 2.16 µM)	625 (≈ 1110 µM)	1250 (≈ 2210 µM)	0.61 (≈ 1.08 µM)	1250 (≈ 2210 µM)	312 (≈ 553 µM)	1250 (≈ 2210 µM)	MIC (Shigella boydii): 4.88 µg/mL (≈ 8.64 µM); MIC (Plesiomonas): 19.5 µg/mL (≈ 34.6 µM); MIC (Shigella sonnei): 1250 µg/mL (≈ 2210 µM); MIC (Klebsiella pneumoniae [4]): 1250 µg/mL (≈ 2210 µM); MIC (Klebsiella pneumoniae [5]): 1250 µg/mL (≈ 2210 µM); inhibition at 6.25 µg/mL [6]: 10%; viability at 72 h, 50 ug/ml [7]: 112%; CC50 at 120 h [8]: > 83.8 µg/mL; Activity [9]: 20.7%; EC50 [10]: > 83.8 µg/mL; CC50 at 120 h [11]: 97.3 µg/mL (≈ 172 µM); EC50 [12]: 32.6 µg/mL (≈ 57.7 µM); inhibition (INH) (Hepatitis C virus): 89%; Activity [13]: 62.6%
COc1cc(Cc2cnc(/N=C3\C(=O)N(CN(Cc4ccccc4)Cc4ccccc4)c4ccc(Cl)cc43)nc2N)cc(OC)c1OC	3	1.22 (≈ 1.84 µM)	1250 (≈ 1880 µM)	625 (≈ 942 µM)	1250 (≈ 1880 µM)	625 (≈ 942 µM)	1250 (≈ 1880 µM)	625 (≈ 942 µM)	625 (≈ 942 µM)	625 (≈ 942 µM)	625 (≈ 942 µM)	625 (≈ 942 µM)	625 (≈ 942 µM)	19.5 (≈ 29.4 µM)	312 (≈ 471 µM)	1250 (≈ 1880 µM)	4.88 (≈ 7.36 µM)	1250 (≈ 1880 µM)	625 (≈ 942 µM)	625 (≈ 942 µM)	MIC (Shigella boydii): 1.22 µg/mL (≈ 1.84 µM); MIC (Plesiomonas): 39.1 µg/mL (≈ 58.9 µM); MIC (Shigella sonnei): 1250 µg/mL (≈ 1880 µM); MIC (Klebsiella pneumoniae [4]): 1250 µg/mL (≈ 1880 µM); MIC (Klebsiella pneumoniae [5]): 1250 µg/mL (≈ 1880 µM); inhibition at 6.25 µg/mL [6]: 97%; viability at 72 h, 50 ug/ml [7]: 65%; CC50 at 120 h [8]: 37.1 µg/mL (≈ 55.9 µM); Activity [9]: 20.98%; EC50 [10]: > 37.1 µg/mL; CC50 at 120 h [11]: 44.1 µg/mL (≈ 66.5 µM); EC50 [12]: 10.4 µg/mL (≈ 15.7 µM); inhibition (INH) (Hepatitis C virus): 81%; Activity [13]: 95.1%
CCCCN(CCCC)CN1C(=O)/C(=N\c2ncc(Cc3cc(OC)c(OC)c(OC)c3)c(N)n2)c2cc(Cl)ccc21	3	0.61 (≈ 1.03 µM)	1250 (≈ 2100 µM)	1250 (≈ 2100 µM)	1250 (≈ 2100 µM)	625 (≈ 1050 µM)	1250 (≈ 2100 µM)	1250 (≈ 2100 µM)	1250 (≈ 2100 µM)	1250 (≈ 2100 µM)	1250 (≈ 2100 µM)	1250 (≈ 2100 µM)	625 (≈ 1050 µM)	19.5 (≈ 32.8 µM)	625 (≈ 1050 µM)	1250 (≈ 2100 µM)	4.88 (≈ 8.2 µM)	2500 (≈ 4200 µM)	1250 (≈ 2100 µM)	625 (≈ 1050 µM)	MIC (Shigella boydii): 39.1 µg/mL (≈ 65.6 µM); MIC (Plesiomonas): 39.1 µg/mL (≈ 65.6 µM); MIC (Shigella sonnei): 1250 µg/mL (≈ 2100 µM); MIC (Klebsiella pneumoniae [4]): 1250 µg/mL (≈ 2100 µM); MIC (Klebsiella pneumoniae [5]): 1250 µg/mL (≈ 2100 µM); inhibition at 6.25 µg/mL [6]: 67%; viability at 72 h, 50 ug/ml [7]: 48%; CC50 at 120 h [11]: 62.6 µg/mL (≈ 105 µM); EC50 [12]: 16.1 µg/mL (≈ 27.1 µM); inhibition (INH) (Hepatitis C virus): 84%; Activity [13]: 73.2%
COc1cc(Cc2cnc(/N=C3\C(=O)N(CN4CCN(c5ccc(F)cc5)CC4)c4ccc(Cl)cc43)nc2N)cc(OC)c1OC	3	4.88 (≈ 7.55 µM)	625 (≈ 967 µM)	625 (≈ 967 µM)	625 (≈ 967 µM)	625 (≈ 967 µM)	625 (≈ 967 µM)	625 (≈ 967 µM)	625 (≈ 967 µM)	625 (≈ 967 µM)	625 (≈ 967 µM)	625 (≈ 967 µM)	312 (≈ 484 µM)	39.1 (≈ 60.5 µM)	625 (≈ 967 µM)	1250 (≈ 1930 µM)	4.88 (≈ 7.55 µM)	1250 (≈ 1930 µM)	625 (≈ 967 µM)	625 (≈ 967 µM)	MIC (Shigella boydii): 19.5 µg/mL (≈ 30.2 µM); MIC (Plesiomonas): 9.76 µg/mL (≈ 15.1 µM); MIC (Shigella sonnei): 1250 µg/mL (≈ 1930 µM); MIC (Klebsiella pneumoniae [4]): 1250 µg/mL (≈ 1930 µM); MIC (Klebsiella pneumoniae [5]): 625 µg/mL (≈ 967 µM); inhibition at 6.25 µg/mL [6]: 35%; viability at 72 h, 50 ug/ml [7]: 64%; CC50 at 120 h [8]: 71 µg/mL (≈ 110 µM); Activity [9]: 22.98%; EC50 [10]: > 71 µg/mL; CC50 at 120 h [11]: 65.6 µg/mL (≈ 102 µM); EC50 [12]: 56.1 µg/mL (≈ 86.8 µM); inhibition (INH) (Hepatitis C virus): 80%; Activity [13]: 59.6%
